The text below walks through data of ChEMBL document CHEMBL1133900, “Improved synthesis and evaluation of 17-substituted aminoalkylgeldanamycin derivatives applicable to drug delivery systems” (Bioorg Med Chem Lett, 2001).

The IC50 is the concentration that gives 50% inhibition. Lower therefore signals greater potency.

This assay deals with A2780. The assay can be described thus: Compound was evaluated for antiproliferative activity against human ovarian carcinoma cell line A2780. It is filed as functional, cell-based.

In turn, `CO[C@H]1/C=C\C=C(/C)C(=O)NC2=CC(=O)C(NCC(O)CN)=C(C[C@@H](C)C[C@H](OC)[C@H](O)[C@@H](C)/C=C(\C)[C@@H]1OC(N)=O)C2=O` (stereo partly drawn) came in with a half-maximal inhibitory concentration (IC50) of 234 nM.
In the case of `CO[C@H]1/C=C\C=C(/C)C(=O)NC2=CC(=O)C(NCCCN)=C(C[C@@H](C)C[C@H](OC)[C@H](O)[C@@H](C)/C=C(\C)[C@@H]1OC(N)=O)C2=O`, half-maximal inhibition (IC50) was put at 136 nM. Against the preceding compound, the IC50 is about 1.7-fold lower.
Then `COC1=C2C[C@@H](C)C[C@H](OC)[C@H](O)[C@@H](C)/C=C(\C)[C@H](OC(N)=O)[C@@H](OC)/C=C\C=C(/C)C(=O)NC(=CC1=O)C2=O` [GELDANAMYCIN], with 3.4 nM.
